Results published in PubChem BioAssay AID248 (DTP/NCI, 2004).
Inconclusive results and toxic doses are left out.

Test system: L1210 leukemia ip in BDF1 mice, survival T/C
Experiment: NCI In Vivo Anticancer Drug Screen. Data for tumor model L1210 Leukemia (intraperitoneal) in B6D2F1 (BDF1) mice
Details: endpoint: mean survival time, higher = longer survival
In short: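 Transplantable tumor model; survival measured in treated vs vehicle control mice. Value = treated/control.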

[1] = dose: 100.0 mg/kg/injection, schedule: Q01DX001 (ip), vehicle: saline with Tween-80
[2] = dose: 200.0 mg/kg/injection, schedule: Q01DX001 (ip), vehicle: saline with Tween-80
[3] = dose: 400.0 mg/kg/injection, schedule: Q01DX001 (ip), vehicle: saline with Tween-80
[4] = dose: 100.0 mg/kg/injection, schedule: Q04DX003 (ip), vehicle: Klucel (hydroxypropylcellulose) (HPC)
[5] = dose: 200.0 mg/kg/injection, schedule: Q04DX003 (ip), vehicle: Klucel (hydroxypropylcellulose) (HPC)
[6] = dose: 400.0 mg/kg/injection, schedule: Q04DX003 (ip), vehicle: Klucel (hydroxypropylcellulose) (HPC)
[7] = dose: 100.0 mg/kg/injection, schedule: Q01DX009 (ip), vehicle: Klucel (hydroxypropylcellulose) (HPC)
[8] = dose: 200.0 mg/kg/injection, schedule: Q01DX009 (ip), vehicle: Klucel (hydroxypropylcellulose) (HPC)
[9] = dose: 400.0 mg/kg/injection, schedule: Q01DX009 (ip), vehicle: Klucel (hydroxypropylcellulose) (HPC)
[10] = dose: 50.0 mg/kg/injection, schedule: Q01DX009 (ip), vehicle: saline with Tween-80
[11] = dose: 100.0 mg/kg/injection, schedule: Q01DX009 (ip), vehicle: saline with Tween-80
[12] = dose: 100.0 mg/kg/injection, schedule: Q04DX003 (ip), vehicle: saline with Tween-80
[13] = dose: 200.0 mg/kg/injection, schedule: Q01DX009 (ip), vehicle: saline with Tween-80
[14] = dose: 200.0 mg/kg/injection, schedule: Q04DX003 (ip), vehicle: saline with Tween-80
[15] = dose: 400.0 mg/kg/injection, schedule: Q04DX003 (ip), vehicle: saline with Tween-80
[16] = dose: 100.0 mg/kg/injection, schedule: Q04DX002 (ip), vehicle: Klucel (hydroxypropylcellulose) (HPC)
[17] = dose: 200.0 mg/kg/injection, schedule: Q04DX002 (ip), vehicle: Klucel (hydroxypropylcellulose) (HPC)
[18] = dose: 400.0 mg/kg/injection, schedule: Q04DX002 (ip), vehicle: Klucel (hydroxypropylcellulose) (HPC)
[19] = dose: 200.0 mg/kg/injection, schedule: Q01DX001 (ip), vehicle: saline
[20] = dose: 100.0 mg/kg/injection, schedule: Q01DX001 (ip), vehicle: Klucel (hydroxypropylcellulose) (HPC)
[21] = dose: 200.0 mg/kg/injection, schedule: Q01DX001 (ip), vehicle: Klucel (hydroxypropylcellulose) (HPC)
[22] = dose: 400.0 mg/kg/injection, schedule: Q01DX001 (ip), vehicle: Klucel (hydroxypropylcellulose) (HPC)

Brc1cccc[n+]1-c1cccc(-c2cccc(-[n+]3ccccc3Br)c2)c1
T/C (dose: 9.38 mg/kg/injection, schedule: Q01DX001 (ip), vehicle: other): 100 % of control | T/C (dose: 18.75 mg/kg/injection, schedule: Q01DX001 (ip), vehicle: other): 101 % of control

CC1(C)C2CCC(O)C1C2 (stereo unspecified)
T/C [1]: 104 % of control | T/C [2]: 97 % of control | T/C [3]: 90 % of control

CC(=O)CC(C)(C)NC(=S)NN
T/C [4]: 91 % of control | T/C [5]: 101 % of control | T/C [6]: 91 % of control

COC(=O)c1ccccc1NC(=O)c1cccc(F)c1
T/C [7]: 95 % of control | T/C [8]: 105 % of control | T/C [9]: 103 % of control

O=C(CCc1ccccc1)NC(=S)Nc1cc(C(F)(F)F)ccc1Cl
T/C [7]: 94 % of control | T/C [8]: 90 % of control | T/C [9]: 87 % of control

ClC1(Cl)C2CC(C3C4C=CC(C4)C32)C1(Cl)Cl (stereo unspecified)
T/C (dose: 50.0 mg/kg/injection, schedule: Q01DX001 (ip), vehicle: carboxymethylcellulose (CMC)): 88 % of control | T/C (dose: 400.0 mg/kg/injection, schedule: Q01DX001 (ip), vehicle: carboxymethylcellulose (CMC)): 101 % of control

CN=C(N)c1ccc(N=C(N)c2ccc(N=C(N)c3ccc(N=C(O)c4cccc(C(O)=Nc5ccc(C(N)=Nc6ccc(C(N)=Nc7ccc(C(N)=NC)cc7)cc6)cc5)c4)cc3)cc2)cc1
T/C (dose: 13.0 mg/kg/injection, schedule: Q01DX015 (ip), vehicle: water): 186 % of control

CCCCN(CCCC)C(=O)C1C=C2c3cccc4[nH]cc(c34)CC2N(C#N)C1 (stereo unspecified)
T/C (dose: 25.0 mg/kg/injection, schedule: Q01DX009 (ip), vehicle: saline with Tween-80): 97 % of control | T/C [10]: 91 % of control | T/C [11]: 94 % of control | T/C [12]: 101 % of control | T/C [13]: 87 % of control | T/C [14]: 100 % of control | T/C [15]: 96 % of control

CONS(=O)c1ccc(Cl)cc1 (stereo unspecified)
T/C [16]: 96 % of control | T/C [17]: 92 % of control | T/C [18]: 108 % of control

NC(=O)c1cncc(C(N)=O)c1
T/C (dose: 100.0 mg/kg/injection, schedule: Q04DX002 (ip), vehicle: saline): 103 % of control | T/C (dose: 200.0 mg/kg/injection, schedule: Q04DX002 (ip), vehicle: saline): 95 % of control | T/C (dose: 400.0 mg/kg/injection, schedule: Q04DX002 (ip), vehicle: saline): 100 % of control

Nc1nc(NCCCc2ccccc2)c([N+](=O)[O-])c(=O)[nH]1
T/C [11]: 93 % of control | T/C [13]: 97 % of control

c1ccc2c(c1)CCCc1cn[nH]c1-2
T/C (dose: 100.0 mg/kg/injection, schedule: Q01DX001 (ip), vehicle: saline): 98 % of control | T/C [19]: 95 % of control

NC(CSS(=O)(=O)O)=NCC1CC2CCC1C2 (stereo unspecified)
T/C (dose: 6.25 mg/kg/injection, schedule: Q04DX002 (ip), vehicle: saline with Tween-80): 100 % of control | T/C (dose: 12.5 mg/kg/injection, schedule: Q04DX002 (ip), vehicle: saline with Tween-80): 110 % of control | T/C (dose: 25.0 mg/kg/injection, schedule: Q04DX002 (ip), vehicle: saline with Tween-80): 106 % of control

CC1([N+](=O)[O-])COP(=O)(O)OC1 (stereo unspecified)
T/C [19]: 90 % of control | T/C (dose: 400.0 mg/kg/injection, schedule: Q01DX001 (ip), vehicle: saline): 97 % of control

CC(C)Cc1c(N)nc(=O)[nH]c1C(=O)O
T/C (dose: 75.0 mg/kg/injection, schedule: Q01DX009 (ip), vehicle: Klucel (hydroxypropylcellulose) (HPC)): 95 % of control | T/C [20]: 96 % of control | T/C (dose: 150.0 mg/kg/injection, schedule: Q01DX009 (ip), vehicle: Klucel (hydroxypropylcellulose) (HPC)): 98 % of control | T/C [21]: 100 % of control | T/C (dose: 300.0 mg/kg/injection, schedule: Q01DX009 (ip), vehicle: Klucel (hydroxypropylcellulose) (HPC)): 101 % of control | T/C [22]: 100 % of control

Cc1ccc(S(=O)(=O)OCCOCCOc2ccc(C(C)(C)CC(C)(C)C)cc2)cc1
T/C (dose: 100.0 mg/kg/injection, schedule: Q01DX001 (ip), vehicle: acetone): 97 % of control | T/C (dose: 100.0 mg/kg/injection, schedule: Q04DX003 (ip), vehicle: saline): 98 % of control | T/C (dose: 200.0 mg/kg/injection, schedule: Q01DX001 (ip), vehicle: acetone): 89 % of control | T/C (dose: 200.0 mg/kg/injection, schedule: Q04DX003 (ip), vehicle: saline): 92 % of control | T/C (dose: 400.0 mg/kg/injection, schedule: Q01DX001 (ip), vehicle: acetone): 87 % of control | T/C (dose: 400.0 mg/kg/injection, schedule: Q04DX003 (ip), vehicle: saline): 91 % of control

O=C1c2cc(Cl)cc(Cl)c2-c2c1cc(Cl)cc2[N+](=O)[O-]
T/C [7]: 97 % of control | T/C [4]: 97 % of control | T/C [8]: 95 % of control | T/C [5]: 97 % of control | T/C [9]: 97 % of control | T/C [6]: 92 % of control

O=C(NC(CCl)c1ccccc1)c1ccc([N+](=O)[O-])cc1 (stereo unspecified)
T/C (dose: 75.0 mg/kg/injection, schedule: Q04DX003 (ip), vehicle: Klucel (hydroxypropylcellulose) (HPC)): 100 % of control | T/C [20]: 98 % of control | T/C (dose: 150.0 mg/kg/injection, schedule: Q04DX003 (ip), vehicle: Klucel (hydroxypropylcellulose) (HPC)): 103 % of control | T/C [21]: 104 % of control | T/C (dose: 300.0 mg/kg/injection, schedule: Q04DX003 (ip), vehicle: Klucel (hydroxypropylcellulose) (HPC)): 97 % of control | T/C [22]: 104 % of control

CCOC(=O)c1ccc(Nc2sc(C(=O)c3ccc(-c4ccccc4)cc3)c(N)c2C#N)cc1
T/C (dose: 100.0 mg/kg/injection, schedule: Q04DX002 (ip), vehicle: saline with Tween-80): 92 % of control | T/C (dose: 200.0 mg/kg/injection, schedule: Q04DX002 (ip), vehicle: saline with Tween-80): 86 % of control | T/C (dose: 400.0 mg/kg/injection, schedule: Q04DX002 (ip), vehicle: saline with Tween-80): 95 % of control

CC1CCCCN1C(=O)Nc1ccc(Cl)cc1Cl (stereo unspecified)
T/C [10]: 91 % of control | T/C [11]: 102 % of control | T/C [13]: 98 % of control

FC(F)(F)C(Cl)(Cc1ccc2ccccc2n1)C(F)(F)F
T/C (dose: 50.0 mg/kg/injection, schedule: Q04DX003 (ip), vehicle: saline with Tween-80): 102 % of control | T/C [11]: 105 % of control | T/C [12]: 101 % of control | T/C [13]: 100 % of control | T/C [14]: 102 % of control | T/C (dose: 400.0 mg/kg/injection, schedule: Q01DX009 (ip), vehicle: saline with Tween-80): 103 % of control | T/C [15]: 94 % of control

Cc1cccc(NC(=O)CCl)c1C
T/C [7]: 100 % of control | T/C [4]: 100 % of control | T/C [8]: 87 % of control | T/C [5]: 100 % of control

CC(=O)Nc1ccc(OC(=O)Nc2cc(C)ccc2C)cc1
T/C (dose: 25.0 mg/kg/injection, schedule: Q01DX009 (ip), vehicle: Klucel (hydroxypropylcellulose) (HPC)): 109 % of control | T/C (dose: 50.0 mg/kg/injection, schedule: Q01DX009 (ip), vehicle: Klucel (hydroxypropylcellulose) (HPC)): 88 % of control | T/C [7]: 94 % of control | T/C [16]: 102 % of control | T/C [4]: 95 % of control | T/C [8]: 89 % of control | T/C [17]: 97 % of control | T/C [5]: 97 % of control | T/C [18]: 100 % of control | T/C [6]: 93 % of control

CCOC(=S)c1cccc(S(=O)(=O)Nc2ccc(OCC)cc2)c1
T/C [1]: 105 % of control | T/C [2]: 105 % of control | T/C [3]: 108 % of control

CCOC(=O)Nc1cccc2ccccc12
T/C [4]: 101 % of control | T/C [5]: 97 % of control | T/C [6]: 98 % of control
